# Laboratory results reported in ChEMBL document CHEMBL5154724, “Cathepsin D inhibitors based on tasiamide B derivatives with cell membrane permeability” (Bioorg Med Chem, 2022).
# Where a name gives a salt, the structure may show the parent alone. *1 amine or outer side, *2 acyl side, *3 side chain or, on linkers, in order; H or OH if unused. Where a SMILES comes first, the peptide text is derived from it. [ ]: non-standard residue; d: D form. The star is where a group is joined. Ahppa(3S,4S) = O=C(C[C@H](O)[C@H](Cc1ccccc1)N[*:1])[*:2]; dNMeF = CN[C@H](Cc1ccccc1)C(=O)O; NMeQ = CN[C@@H](CCC(N)=O)C(=O)O; Cbz = O=C(OCc1ccccc1)*
# What was measured:
# [1] = tested on: A549; test: Antiproliferative activity against human A549 cells assessed as reduction in cell viability after 72 hrs by CCK-8 assay; type: functional, cell-based; conditions: A549, 72 h
# [2] = tested on: HepG2; test: Antiproliferative activity against human HepG2 cells assessed as reduction in cell viability after 72 hrs by CCK-8 assay; type: functional, cell-based; conditions: HepG2, 72 h
# [3] = tested on: MDA-MB-231; test: Antiproliferative activity against human MDA-MB-231 cells assessed as reduction in cell viability after 72 hrs by CCK-8 assay; type: functional, cell-based; conditions: MDA-MB-231, 72 h
# [4] = tested on: MDA-MB-231; test: Antiproliferative activity against human MDA-MB-231 cells assessed as reduction in cell viability at 10 uM after 72 hrs by CCK-8 assay relative to control; type: functional
# [5] = biological target: Cathepsin D (Homo sapiens, UniProt P07339); test: Inhibition of recombinant human liver Cathepsin D using Mca-Gly-Lys-Pro-Ile-Leu-Phe-Phe-Arg-Leu-Lys-(Dnp)-D-Arg-NH2 as substrate incubated for 120 mins by fluorescence assay
# Cathepsin D, sequence (P07339 65-162 limits assumed): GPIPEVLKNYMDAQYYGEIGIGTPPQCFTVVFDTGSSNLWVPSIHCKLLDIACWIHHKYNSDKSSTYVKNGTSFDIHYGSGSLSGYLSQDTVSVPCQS
# Cathepsin D, sequence (P07339 169-412 limits assumed): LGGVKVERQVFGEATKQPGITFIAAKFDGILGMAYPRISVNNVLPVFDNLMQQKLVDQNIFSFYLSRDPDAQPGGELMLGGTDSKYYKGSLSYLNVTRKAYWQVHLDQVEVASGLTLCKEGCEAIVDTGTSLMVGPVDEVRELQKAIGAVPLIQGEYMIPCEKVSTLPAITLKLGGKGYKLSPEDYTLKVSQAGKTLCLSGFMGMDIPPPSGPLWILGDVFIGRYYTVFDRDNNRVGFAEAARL
# [6] = biological target: T1, Cathepsin E (Homo sapiens, UniProt P14091); test: Inhibition of Cathepsin E (unknown origin) using Mca-Gly-Lys-Pro-Ile-Leu-Phe-Phe-Arg-Leu-Lys-(Dnp)-D-Arg-NH2 as substrate incubated for 120 mins by fluorescence assay
# T1 sequence (P14091 whole entry): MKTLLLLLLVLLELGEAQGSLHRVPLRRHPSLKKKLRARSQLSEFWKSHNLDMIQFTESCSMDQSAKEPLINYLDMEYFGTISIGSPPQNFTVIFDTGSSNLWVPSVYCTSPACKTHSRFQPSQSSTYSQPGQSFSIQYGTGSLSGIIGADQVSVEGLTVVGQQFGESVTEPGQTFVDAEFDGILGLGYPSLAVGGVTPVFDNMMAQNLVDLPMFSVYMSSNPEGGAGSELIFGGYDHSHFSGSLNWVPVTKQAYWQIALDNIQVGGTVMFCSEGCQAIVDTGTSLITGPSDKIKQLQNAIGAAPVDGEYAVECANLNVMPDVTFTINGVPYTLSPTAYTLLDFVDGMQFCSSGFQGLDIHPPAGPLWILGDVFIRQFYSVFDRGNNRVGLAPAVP
# [7] = biological target: Beta-secretase 1 (Homo sapiens, UniProt P56817); test: Inhibition of BACE1 (unknown origin) using Mca-Ser-Glu-Val-Asn-Leu-Asp-Ala-Glu-Phe-Arg-Lys(Dnp)-Arg-Arg-NH2 as substrate incubated for 120 mins by fluorescence assay
# Beta-secretase 1, sequence (P56817 whole entry): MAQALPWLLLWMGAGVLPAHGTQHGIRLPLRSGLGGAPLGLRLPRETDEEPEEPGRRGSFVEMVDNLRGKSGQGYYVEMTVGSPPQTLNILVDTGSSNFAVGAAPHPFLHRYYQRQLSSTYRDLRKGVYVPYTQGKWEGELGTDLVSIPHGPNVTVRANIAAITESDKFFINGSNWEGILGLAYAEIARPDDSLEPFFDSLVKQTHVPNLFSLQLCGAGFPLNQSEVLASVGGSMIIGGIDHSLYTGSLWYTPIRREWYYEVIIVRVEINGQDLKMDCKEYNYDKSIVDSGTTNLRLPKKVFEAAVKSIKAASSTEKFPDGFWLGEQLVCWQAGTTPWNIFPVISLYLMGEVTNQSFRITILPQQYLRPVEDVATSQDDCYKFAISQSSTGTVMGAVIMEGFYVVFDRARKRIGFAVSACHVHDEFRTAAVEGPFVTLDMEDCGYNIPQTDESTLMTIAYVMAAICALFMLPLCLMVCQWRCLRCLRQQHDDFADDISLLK
# [8] = Drug uptake in human MDA-MB-231 cells assessed as increase in internalization at 10 uM after 16 to 24 hrs by LTG/Hoechst 33258 staining based confocal laser scanning microscopy; type: ADME, cell-based; conditions: mda-mb-231, 10 µM, time 16-24 hrs
# [9] = Drug uptake in human MDA-MB-231 cells assessed as increase in internalization at 10 uM after 3 to 24 hrs by LTG/Hoechst 33258 staining based confocal laser scanning microscopy; type: ADME, cell-based; conditions: mda-mb-231, 10 µM, time 3-24 hrs
# [10] = Drug uptake in human MDA-MB-231 cells assessed as increase in co-localization with lysosomal at 10 uM after 16 hrs by LTG/Hoechst 33258 staining based confocal laser scanning microscopy; type: ADME, cell-based; conditions: mda-mb-231, 16 h
Structure (SMILES),IC50 [1],IC50 [2],IC50 [3],inhibition at 10 µM [4],IC50 [5],IC50 [6],IC50 [7],Drug uptake [8],Drug uptake [9],Drug uptake [10]
"COC(=O)[C@@H]1CCCN1C(=O)[C@@H](Cc1ccccc1)N(C)C(=O)[C@H](C)NC(=O)[C@H](CC(C)C)NC(=O)C[C@H](O)[C@H](Cc1ccccc1)NC(=O)[C@H](CCC(N)=O)N(C)C(=O)[C@@H](NC(=O)OCc1ccccc1)C(C)C (Cbz-V[NMeQ][Ahppa(3S,4S)]LA[dNMeF]P-OMe)",> 10000 nM,> 10000 nM,> 10000 nM,14%,,,,,,
CC(C)C[C@H](NC(=O)C[C@H](O)[C@H](Cc1ccccc1)NC(=O)[C@H](CCC(N)=O)N(C)C(=O)[C@@H](NC(=O)OCc1ccccc1)C(C)C)C(=O)N[C@@H](C)C(=O)N(C)[C@H](Cc1ccc(O)cc1)C(=O)N1CCC[C@H]1C(=O)NCCOCCOCCn1cc(CNC(=O)[C@H](CCCCNC(=O)[C@H](CCCCN)NC(=O)[C@H](CCCCN)NC(=O)[C@H](CCC(N)=O)NC(=O)[C@H](CO)NC(=O)CCN2c3ccccc3C(C)(C)[C@]23C=Cc2cc([N+](=O)[O-])ccc2O3)NC(=O)[C@H](CCCCN)NC(=O)[C@H](CCCCN)NC(=O)C(CCC(N)=O)NC(=O)[C@H](CO)NC(=O)CCN2c3ccccc3C(C)(C)[C@]23CCc2cc([N+](=O)[O-])ccc2O3)nn1 (some centres not stated),> 10000 nM,> 10000 nM,9100 nM,52%,22 nM,12 nM,828 nM,Active,,
COc1cccc2c1C(=O)c1c(O)c3c(c(O)c1C2=O)C[C@@](O)(C(=O)CO)C[C@@H]3O[C@H]1C[C@H](N)[C@H](O)[C@H](C)O1 [DOXORUBICIN HYDROCHLORIDE],400 nM,,370 nM,70%,,,,,,
CC(C)C[C@H](NC(=O)C[C@H](O)[C@H](Cc1ccccc1)NC(=O)[C@H](CCC(N)=O)N(C)C(=O)[C@@H](NC(=O)OCc1ccccc1)C(C)C)C(=O)N[C@@H](C)C(=O)N(C)[C@H](Cc1ccccc1)C(=O)N1CCC[C@H]1C(=O)O,,,,,4.89 nM,120 nM,,,,
COC(=O)[C@@H]1CCCN1C(=O)[C@@H](Cc1ccc(O)cc1)N(C)C(=O)[C@H](C)NC(=O)[C@H](CC(C)C)NC(=O)C[C@H](O)[C@H](Cc1ccccc1)NC(=O)[C@H](CCC(N)=O)N(C)C(=O)[C@@H](NC(=O)OCc1ccccc1)C(C)C,> 10000 nM,> 10000 nM,> 10000 nM,12%,0.178 nM,104 nM,,,,
COC(=O)[C@@H]1CCCN1C(=O)[C@@H](Cc1ccc(OC(C)(C)C)cc1)N(C)C(=O)[C@H](C)NC(=O)[C@H](CC(C)C)NC(=O)C[C@H](O)[C@H](Cc1ccccc1)NC(=O)[C@H](CCC(N)=O)N(C)C(=O)[C@@H](NC(=O)OCc1ccccc1)C(C)C,,,,,18 nM,105 nM,,,,
CC(C)C[C@H](NC(=O)C[C@H](O)[C@H](Cc1ccccc1)NC(=O)[C@H](CCC(N)=O)N(C)C(=O)[C@@H](NC(=O)OCc1ccccc1)C(C)C)C(=O)N[C@@H](C)C(=O)N(C)[C@H](Cc1ccc(OC(C)(C)C)cc1)C(=O)N1CCC[C@H]1C(=O)O,,,,,19 nM,187 nM,,,,
CC(C)C[C@H](NC(=O)C[C@H](O)[C@H](Cc1ccccc1)NC(=O)[C@H](CCC(N)=O)N(C)C(=O)[C@@H](NC(=O)OCc1ccccc1)C(C)C)C(=O)N[C@@H](C)C(=O)N(C)[C@H](Cc1ccccc1)C(=O)N1CCC[C@H]1C(=O)NCCOCCOCCn1cc(CNC(=O)[C@H](CCCCNC(=O)[C@H](CCCCN)NC(=O)[C@H](CCCCN)NC(=O)[C@H](CCC(N)=O)NC(=O)[C@H](CO)NC(=O)CCN2c3ccccc3C(C)(C)[C@]23C=Cc2cc([N+](=O)[O-])ccc2O3)NC(=O)[C@H](CCCCN)NC(=O)[C@H](CCCCN)NC(=O)C(CCC(N)=O)NC(=O)[C@H](CO)NC(=O)CCN2c3ccccc3C(C)(C)[C@]23CCc2cc([N+](=O)[O-])ccc2O3)nn1 (some centres not stated),> 10000 nM,> 10000 nM,> 10000 nM,49%,41 nM,100 nM,1030 nM,Active,,
C#CCNC(=O)[C@H](CCCCNC(=O)[C@H](CCCCN)NC(=O)[C@H](CCCCN)NC(=O)[C@H](CCC(N)=O)NC(=O)[C@H](CO)NC(=O)CCN1c2ccccc2C(C)(C)[C@]12CCc1cc([N+](=O)[O-])ccc1O2)NC(=O)[C@H](CCCCN)NC(=O)[C@H](CCCCN)NC(=O)C(CCC(N)=O)NC(=O)[C@H](CO)NC(=O)CCN1c2ccccc2C(C)(C)[C@]12CCc1cc([N+](=O)[O-])ccc1O2 (some centres not stated),,,,,,,,,Active,Active
